# Earlier results in US20060006323A1, “Method and an apparatus for evaluating toxicity of chemical agents” (priority 2004, published 2006).
# Target: T1, AhR (Homo sapiens, UniProt P35869)
# T1 sequence (P35869 11-848): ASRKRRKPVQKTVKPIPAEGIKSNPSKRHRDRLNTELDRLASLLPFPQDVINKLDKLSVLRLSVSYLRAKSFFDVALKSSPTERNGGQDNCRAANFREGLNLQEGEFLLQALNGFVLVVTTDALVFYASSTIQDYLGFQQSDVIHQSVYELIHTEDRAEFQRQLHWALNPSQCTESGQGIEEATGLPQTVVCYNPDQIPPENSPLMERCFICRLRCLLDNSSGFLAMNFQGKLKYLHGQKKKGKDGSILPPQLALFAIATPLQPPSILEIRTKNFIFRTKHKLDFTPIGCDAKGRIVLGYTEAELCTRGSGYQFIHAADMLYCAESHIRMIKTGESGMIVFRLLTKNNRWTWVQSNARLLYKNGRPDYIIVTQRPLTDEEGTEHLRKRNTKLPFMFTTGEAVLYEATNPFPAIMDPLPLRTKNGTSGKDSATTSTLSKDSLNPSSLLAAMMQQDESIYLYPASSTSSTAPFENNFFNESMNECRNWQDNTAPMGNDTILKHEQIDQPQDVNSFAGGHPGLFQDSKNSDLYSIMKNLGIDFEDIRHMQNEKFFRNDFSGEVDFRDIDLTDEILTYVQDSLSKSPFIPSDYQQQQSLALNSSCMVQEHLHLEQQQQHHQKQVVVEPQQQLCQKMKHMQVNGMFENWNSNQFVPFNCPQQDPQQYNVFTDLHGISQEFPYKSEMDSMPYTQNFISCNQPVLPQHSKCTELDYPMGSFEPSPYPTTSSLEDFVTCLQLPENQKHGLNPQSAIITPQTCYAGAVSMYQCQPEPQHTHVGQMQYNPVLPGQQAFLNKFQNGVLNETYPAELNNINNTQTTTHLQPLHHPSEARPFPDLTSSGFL
# Conditions: published by Matsui et al. 2002, HPLC bioassay; cited from earlier work
row,SMILES,affinity with AhR
1,O=C1/C(=C2\Nc3ccccc3C2=O)Nc2ccccc21 [indigo],strong affinity

# Tested on: not given
# Conditions: toxicity intensity relative to 2,3,7,8-TCDD set to be 1; cited from earlier work
row,SMILES,WHO-TEF
1,"Clc1cc2c(cc1Cl)Oc1c(Cl)c(Cl)c(Cl)c(Cl)c1O2 [1,2,3,4,7,8-HxCDD]",0.1
2,"Clc1cc2c(c(Cl)c1Cl)Oc1cc(Cl)c(Cl)c(Cl)c1O2 [1,2,3,6,7,8-HxCDD]",0.1
3,"Clc1cc2c(c(Cl)c1Cl)Oc1c(cc(Cl)c(Cl)c1Cl)O2 [1,2,3,7,8,9-HxCDD]",0.1
4,"Clc1cc2c(cc1Cl)Oc1c(cc(Cl)c(Cl)c1Cl)O2 [1,2,3,7,8-PeCDD]",1
5,"Clc1cc2c(cc1Cl)Oc1cc(Cl)c(Cl)cc1O2 [2,3,7,8-TCDD]",1
6,Clc1c(Cl)c(Cl)c2c(c1Cl)Oc1c(Cl)c(Cl)c(Cl)c(Cl)c1O2 [OCDD],0.0001

# Tested on: not given
# Conditions: reported toxicity; cited from earlier work
row,SMILES,toxicity
1,"Clc1c(Cl)c(Cl)c2c(c1Cl)Oc1ccccc1O2 [1,2,3,4-TCDD]",without any reported toxicity
2,O=C1/C(=C2\Nc3ccccc3C2=O)Nc2ccccc21 [indigo],comparatively low
